This test deals with GTPase KRas (Homo sapiens, UniProt P01116). Description: Inhibition of GDP loaded biotin-labeled KRAS G12C mutant (unknown origin) assessed as reduction in guanine nucleotide exchange preincubated for 4 hrs followed by GST-RAF-RBD addition in presence of GTPgammaS by FRET assay.
GTPase KRas, sequence (P01116 whole entry G12C): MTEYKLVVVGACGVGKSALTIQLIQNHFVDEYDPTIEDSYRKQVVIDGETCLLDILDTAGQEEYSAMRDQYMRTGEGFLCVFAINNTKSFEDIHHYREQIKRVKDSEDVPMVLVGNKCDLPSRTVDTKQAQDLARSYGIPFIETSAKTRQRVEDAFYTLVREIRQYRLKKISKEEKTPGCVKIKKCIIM

By IC50 is commonly meant the concentration needed to halve the response being measured. Turning to `C=CC(=O)N1CCN2c3nc(N4CC(N(C)C)C4)nc4cc(-c5c(C)ccc6[nH]ncc56)c(Cl)c(c34)OC[C@@H]2C1`, the concentration for half-maximal inhibition (IC50) was found to be 21 nM.
